Measured values from US12071423B2, “Processes and intermediate for the large-scale preparation of 2,4,6-trifluoro-N-[6-(1-methyl-piperidine-4-carbonyl)-pyridin-2-yl]-benzamide hemisuccinate, and preparation of 2,4,6-trifluoro-N-[6-(1-methyl-piperidine-4-carbonyl)-pyridin-2-yl]-benzamide acetate” (Eli Lilly and Company, priority 2019, dated 2024).
Structures can show the parent of a compound that is named as a salt. Where two headings read alike, the source gives them in different places.

Key:
Assay type in all cases: physicochemical
[1] = Form and chemical stability studies of the intermediate
Excerpt: [drawing 6] which can be named as (6-amino-2-pyridyl)-(1-methyl-4-piperidyl)methanone dihydrate dihydrochloride. Preferably this compound is crystalline. (6-amino-2-pyridyl)-(1-methyl-4-piperidyl)methanone dihydrate dihydrochloride is particularly useful in the preparation of 2,4,6-trifluoro-N-[6-(1-methylpiperidine-4-carbonyl)-2-pyridyl]benzamide hemisuccinate, and processes which employ (6-amino-2-pyridyl)-(1-methyl-4-piperidyl)methanone dihydrate dihydrochloride may provide advantageous process characteristics, including but not limited to the purity of intermediate and/or final materials. (6-amino-2-pyridyl)-(1-methyl-4-piperidyl)methanone dihydrate dihydrochloride is believed to be a new stable hydrated form of 6-amino-2-pyridyl)-(1-methyl-4-piperidyl)methanone. The process to isolate (6-amino-2-pyridyl)-(1-methyl-4-piperidyl)methanone dihydrate dihydrochloride described herein provides improved impurity rejection and an improved controlled crystallization process. […] Use of this intermediate provides advantageously high purity product at expected yield.

[2] = Dissolution of lasmiditan acetate at 50 mg/mL: pH and tonicity of the solution; settings: dissolution at 50 mg/mL
Description: (§1) Lasmiditan acetate enables the desired solubility to provide high concentration formulations having a less than or equal to about 1 mL dose volume, for the desired unit doses, which is critical for clinical applications such as use in available autoinjector devices. In addition, dissolution of lasmiditan acetate at 50 mg/mL results in close to neutral pH (pH approximately 6.8), is isotonic, and stable for at least 2 months.

[3] = Stability of lasmiditan acetate 50 mg/mL solution; settings: dissolution at 50 mg/mL
Description: as §1

[4] = Solubility in 10 mmol acetate, citrate or phosphate buffer (excess solid equilibrated at RT overnight, HPLC)
Description: Lasmiditan acetate was discovered to enable a desired dose target of about 50 mg in the minimal volume of less than or equal to about 1 mL, while at the same time achieving a desired target pH being close to neutral, and in addition being relatively isotonic and physically and chemically stable. […] For solubility determinations 10 mmol buffer is made with a respective acid and salt, and pH is adjusted by changing the acid/salt ratio. Excess solid is equilibrated at RT overnight, and solution concentration is analyzed by HPLC and solid was characterized by XRPD. In contrast, for lasmiditan acetate it was discovered that solubility of >50 mg/mL can be achieved, at close to neutral pH, without adjusting the pH.

SMILES: CN1CCC(C(=O)c2cccc(N)n2)CC1 [(6-amino-2-pyridyl)-(1-methyl-4-piperidyl)methanone dihydrate dihydrochloride]
- form and chemical stability [1]: generally stable

SMILES: CC(=O)O.CN1CCC(C(=O)c2cccc(NC(=O)c3c(F)cc(F)cc3F)n2)CC1 [Lasmiditan Acetate, 2,4,6-trifluoro-N-[6-(1-methylpiperidine-4-carbonyl)-2-pyridyl]benzamide acetate]
- pH on dissolution [2]: approximately 6.8
- tonicity of solution [2]: isotonic
- stability of solution [3]: at least 2 months
- solubility compared with lasmiditan hemisuccinate salt [4]: significantly higher solubility
- solubility ([4]; 10 mmol acetate buffer, pH 3.69, aqueous buffer, thermodynamic from solid, Acetate buffer, pH (before) 3.69, free base eq., all added solute went into solution, read-out: Solubility (Free Base eq. mg/mL)): > 441 mg/mL
- solubility ([4]; 10 mmol acetate buffer, pH 4.05, aqueous buffer, thermodynamic from solid, Acetate buffer, pH (before) 4.05, free base eq., all added solute went into solution, read-out: Solubility (Free Base eq. mg/mL)): > 430 mg/mL
- solubility ([4]; 10 mmol acetate buffer, pH 4.4, aqueous buffer, thermodynamic from solid, Acetate buffer, pH (before) 4.4, free base eq., all added solute went into solution, read-out: Solubility (Free Base eq. mg/mL)): > 412 mg/mL
- solubility ([4]; 10 mmol acetate buffer, pH 5.09, aqueous buffer, thermodynamic from solid, Acetate buffer, pH (before) 5.09, free base eq., all added solute went into solution, read-out: Solubility (Free Base eq. mg/mL)): > 430 mg/mL
- solubility ([4]; 10 mmol acetate buffer, pH 5.71, aqueous buffer, thermodynamic from solid, Acetate buffer, pH (before) 5.71, free base eq., all added solute went into solution, read-out: Solubility (Free Base eq. mg/mL)): > 486 mg/mL
- solubility ([4]; 10 mmol buffer (acetate, citrate or phosphate), pH 6.8, thermodynamic from solid, at close to neutral pH, without adjusting the pH, read-out: solubility): > 50 mg/mL
- solubility ([4]; 10 mmol citrate buffer, pH 2.5, aqueous buffer, thermodynamic from solid, Citrate buffer, pH (before) 2.5, free base eq., all added solute went into solution, read-out: Solubility (Free Base eq. mg/mL)): > 300 mg/mL
- solubility ([4]; 10 mmol citrate buffer, pH 3.84, aqueous buffer, thermodynamic from solid, Citrate buffer, pH (before) 3.84, free base eq., all added solute went into solution, read-out: Solubility (Free Base eq. mg/mL)): > 300 mg/mL
- solubility ([4]; 10 mmol citrate buffer, pH 4.99, aqueous buffer, thermodynamic from solid, Citrate buffer, pH (before) 4.99, free base eq., all added solute went into solution, read-out: Solubility (Free Base eq. mg/mL)): > 300 mg/mL
- solubility ([4]; 10 mmol citrate buffer, pH 5.96, aqueous buffer, thermodynamic from solid, Citrate buffer, pH (before) 5.96, free base eq., all added solute went into solution, read-out: Solubility (Free Base eq. mg/mL)): > 300 mg/mL
- solubility ([4]; 10 mmol phosphate buffer, pH 8.24, aqueous buffer, thermodynamic from solid, Phosphate buffer, pH (before) 8.24, free base eq., all added solute went into solution, read-out: Solubility (Free Base eq. mg/mL)): > 300 mg/mL
- pH (after) ([4]; Acetate buffer, pH (before) 3.69): 6.25
- pH (after) ([4]; Acetate buffer, pH (before) 4.05): 6.41
- pH (after) ([4]; Acetate buffer, pH (before) 4.4): 6.31
- pH (after) ([4]; Acetate buffer, pH (before) 5.09): 6.50
- pH (after) ([4]; Acetate buffer, pH (before) 5.71): 6.56
- pH (after) ([4]; Citrate buffer, pH (before) 2.5): 5.60
- pH (after) ([4]; Citrate buffer, pH (before) 3.84): 5.72
- pH (after) ([4]; Citrate buffer, pH (before) 4.99): 6.23
- pH (after) ([4]; Citrate buffer, pH (before) 5.96): 6.24
- pH (after) ([4]; Phosphate buffer, pH (before) 8.24): 6.42

SMILES: CN1CCC(C(=O)c2cccc(NC(=O)c3c(F)cc(F)cc3F)n2)CC1 [lasmiditan hemisuccinate, 2,4,6-trifluoro-N-[6-(1-methylpiperidine-4-carbonyl)-2-pyridyl]benzamide hemisuccinate, reference compound]
- achieving >50 mg/mL solubility ([4]; at close to neutral pH): difficult without using co-solvents
